pIC50: −log10 of the molar value.
Tested on: T-47D spheroids with HUVEC/MSC, viability
Experiment: Anticancer human tumor T-47D cell line growth inhibition [PI3K];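 note: spheroids exposed to agents for seven days before reading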;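 for viability, T/C: percent of DMSO vehicle control luminescence so 100% = untreated growth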
Conditions: for pIC50: curve of first compound; for viability, T/C: stronger effect = lower value
How it was run: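 Complex 3D spheroids (cancer cells + endothelial HUVEC + mesenchymal stem cells); drug pairs of targeted agent x inavolisib/alpelisib/duvelisib/copanlisib; half-log series from ~Cmax, max 10 microM if Cmax unknown; endpoint viability.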

[1] = second compound 0.0316 µM, first compound 0.00316 µM
[2] = second compound 0.0316 µM, first compound 0.01 µM
[3] = second compound 0.0316 µM, first compound 0.0316 µM
[4] = second compound 0.0316 µM, first compound 0.1 µM
[5] = second compound 0.1 µM, first compound 0.00316 µM
[6] = second compound 0.1 µM, first compound 0.01 µM
[7] = second compound 0.1 µM, first compound 0.0316 µM
[8] = second compound 0.1 µM, first compound 0.1 µM
[9] = second compound 0.316 µM, first compound 0.00316 µM
[10] = second compound 0.316 µM, first compound 0.01 µM
[11] = second compound 0.316 µM, first compound 0.0316 µM
[12] = second compound 0.316 µM, first compound 0.1 µM
[13] = second compound 1 µM, first compound 0.00316 µM
[14] = second compound 1 µM, first compound 0.01 µM
[15] = second compound 1 µM, first compound 0.0316 µM
[16] = second compound 1 µM, first compound 0.1 µM
[17] = second compound 3.16 µM, first compound 0.00316 µM
[18] = second compound 3.16 µM, first compound 0.01 µM
[19] = second compound 3.16 µM, first compound 0.0316 µM
[20] = second compound 3.16 µM, first compound 0.1 µM
[21] = second compound 10 µM, first compound 0.00316 µM
[22] = second compound 10 µM, first compound 0.01 µM
[23] = second compound 10 µM, first compound 0.0316 µM
[24] = second compound 10 µM, first compound 0.1 µM

CCN1CCN(Cc2ccc(Nc3ncc(F)c(-c4cc(F)c5nc(C)n(C(C)C)c5c4)n3)nc2)CC1 + CC(Nc1ncnc2nc[nH]c12)c1cc2cccc(Cl)c2c(=O)n1-c1ccccc1
pIC50 (second compound 0.0316 µM): < 6.00
pIC50 (second compound 0.1 µM): < 6.00
pIC50 (second compound 0.316 µM): < 6.00
pIC50 (second compound 1 µM): < 6.00
pIC50 (second compound 3.16 µM): < 6.00
pIC50 (second compound 10 µM): < 6.00
viability, T/C [1]: 107%
viability, T/C [2]: 97.2%
viability, T/C [3]: 91.7%
viability, T/C [4]: 74.7%
viability, T/C (second compound 0.0316 µM, first compound 0.316 µM): 95.7%
viability, T/C (second compound 0.0316 µM, first compound 1 µM): 94.5%
viability, T/C [5]: 114%
viability, T/C [6]: 87.1%
viability, T/C [7]: 81.8%
viability, T/C [8]: 96%
viability, T/C (second compound 0.1 µM, first compound 0.316 µM): 88.5%
viability, T/C (second compound 0.1 µM, first compound 1 µM): 92.3%
viability, T/C [9]: 103%
viability, T/C [10]: 98.5%
viability, T/C [11]: 82.6%
viability, T/C [12]: 78.8%
viability, T/C (second compound 0.316 µM, first compound 0.316 µM): 93.6%
viability, T/C (second compound 0.316 µM, first compound 1 µM): 106%
viability, T/C [13]: 112%
viability, T/C [14]: 93.2%
viability, T/C [15]: 91%
viability, T/C [16]: 84.1%
viability, T/C (second compound 1 µM, first compound 0.316 µM): 89.7%
viability, T/C (second compound 1 µM, first compound 1 µM): 106%
viability, T/C [17]: 93.5%
viability, T/C [18]: 80.9%
viability, T/C [19]: 85.6%
viability, T/C [20]: 77.2%
viability, T/C (second compound 3.16 µM, first compound 0.316 µM): 89.9%
viability, T/C (second compound 3.16 µM, first compound 1 µM): 85.9%
viability, T/C [21]: 77.7%
viability, T/C [22]: 89.4%
viability, T/C [23]: 82.2%
viability, T/C [24]: 72.8%
viability, T/C (second compound 10 µM, first compound 0.316 µM): 71.9%
viability, T/C (second compound 10 µM, first compound 1 µM): 82.1%

CC(=O)c1c(C)c2cnc(Nc3ccc(N4CCNCC4)cn3)nc2n(C2CCCC2)c1=O + Cc1nc(NC(=O)N2CCCC2C(N)=O)sc1-c1ccnc(C(C)(C)C(F)(F)F)c1
pIC50 (second compound 0.0316 µM): < 7.00
pIC50 (second compound 0.1 µM): < 7.00
pIC50 (second compound 0.316 µM): < 7.00
pIC50 (second compound 1 µM): < 7.00
pIC50 (second compound 3.16 µM): 7.52
pIC50 (second compound 10 µM): > 9.50
viability, T/C (second compound 0.0316 µM, first compound 0.000316 µM): 109%
viability, T/C (second compound 0.0316 µM, first compound 0.001 µM): 101%
viability, T/C [1]: 98.8%
viability, T/C [2]: 98.4%
viability, T/C [3]: 92.1%
viability, T/C [4]: 89.2%
viability, T/C (second compound 0.1 µM, first compound 0.000316 µM): 101%
viability, T/C (second compound 0.1 µM, first compound 0.001 µM): 100%
viability, T/C [5]: 95.8%
viability, T/C [6]: 107%
viability, T/C [7]: 95.5%
viability, T/C [8]: 83%
viability, T/C (second compound 0.316 µM, first compound 0.000316 µM): 98.3%
viability, T/C (second compound 0.316 µM, first compound 0.001 µM): 110%
viability, T/C [9]: 88%
viability, T/C [10]: 99.5%
viability, T/C [11]: 95.2%
viability, T/C [12]: 75.3%
viability, T/C (second compound 1 µM, first compound 0.000316 µM): 98.4%
viability, T/C (second compound 1 µM, first compound 0.001 µM): 90.7%
viability, T/C [13]: 85.9%
viability, T/C [14]: 82.7%
viability, T/C [15]: 86.6%
viability, T/C [16]: 61.8%
viability, T/C (second compound 3.16 µM, first compound 0.000316 µM): 65.7%
viability, T/C (second compound 3.16 µM, first compound 0.001 µM): 66.8%
viability, T/C [17]: 69.3%
viability, T/C [18]: 64.2%
viability, T/C [19]: 49.6%
viability, T/C [20]: 42.6%
viability, T/C (second compound 10 µM, first compound 0.000316 µM): 37.1%
viability, T/C (second compound 10 µM, first compound 0.001 µM): 39.8%
viability, T/C [21]: 35.1%
viability, T/C [22]: 31.3%
viability, T/C [23]: 23.1%
viability, T/C [24]: 29.3%

Source: PubChem BioAssay AID1963959 (Molecular Pharmacology Branch, DTP, NCI, 2024)
